Drawing on article PMC10216551 (2023), this text covers Kd and binding for two compounds.

In assay [1] the test system is H1 (DNA, aptamer) GACGACGTAGCGGCGGTGTGGGCATTTTGGGCTAAAGTCGTCCCGATGCT
The assay can be described thus: ITC. The settings on record: 500 mM NaCl, 10 mM MgCl2, 50 mM HEPES pH 7.6, 25 °C.

Assay [2] concerns H1-21 (DNA, aptamer) GTAGCGGCGGTGTGGGCATTTTGGGCTAA
The assay can be described thus: ITC. The settings on record: 500 mM NaCl, 10 mM MgCl2; 50 mM HEPES pH 7.6, 25 °C; one-site fit.

For assay [3], the system named is H1-14 (DNA, aptamer) GACGTAGCGGCGGTGTGGGCATTTTGGGCTAAAGTC
The assay can be described thus: ITC. The settings on record: 500 mM NaCl, 10 mM MgCl2; 50 mM HEPES pH 7.6, 25 °C; one-site fit.

The subject of assay [4] is H2 (DNA, aptamer) GACGACTGTGGGCTGCCAAGGGCGCGTAGGGCGAAAGTCGTCCCGATGCT
Kind of assay: ITC. The settings on record: 500 mM NaCl, 10 mM MgCl2, 50 mM HEPES pH 7.6, 25 °C.

The test system of assay [5] is H1-12 (DNA, aptamer) CGACGTAGCGGCGGTGTGGGCATTTTGGGCTAAAGTCG
The assay can be described thus: ITC. Particulars: 500 mM NaCl, 10 mM MgCl2; 50 mM HEPES pH 7.6, 25 °C; one-site fit.

In assay [6] the test system is H3 (DNA, aptamer) GACGACTAAGCGGCGGTGTGGGCATTTTGGGCTTTTGTCGTCCCGATGCT
The assay can be described thus: ITC. Particulars: 500 mM NaCl, 10 mM MgCl2, 50 mM HEPES pH 7.6, 25 °C.

Assay [7] deals with H10 (DNA, aptamer) GACGACTAGAGGGGGCCCGTTATTCGGTGATGTCTTGTCGTCCCGATGCT
Kind of assay: ITC. Particulars: 500 mM NaCl, 10 mM MgCl2; 50 mM HEPES pH 7.6, 25 °C; 10 μM aptamer, 0.33 mM 5-HMF in syringe.

The test system of assay [8] is FAM-H1-8 (DNA, aptamer) GACGACGTAGCGGCGGTGTGGGCATTTTGGGCTAAAGTCGTC
The assay can be described thus: fluorescence, quencher strand displacement. Particulars: 500 mM NaCl, 10 mM MgCl2, 50 mM HEPES pH 7.6, room temperature.

Assay [9] relates to H1-8 (DNA, aptamer) GACGACGTAGCGGCGGTGTGGGCATTTTGGGCTAAAGTCGTC
Kind of assay: ITC. Particulars: 500 mM NaCl, 10 mM MgCl2; 50 mM HEPES pH 7.6, 25 °C; one-site fit.

For assay [10], the system named is H7 (DNA, aptamer) GACGACGTCCCGATGCTGCAATCGTAAACCCGTTATGTCGTCCCGATGCT
The assay can be described thus: ITC. The settings on record: 500 mM NaCl, 10 mM MgCl2; 50 mM HEPES pH 7.6, 25 °C; 10 μM aptamer, 0.33 mM 5-HMF in syringe.

For the compound `O=Cc1ccc(CO)o1`, the Kd in [1] (one-site fit) is 2.46 ± 1.90 µM; in [2] it was 4.7 ± 0.6 µM; in assay [3], 6.50 ± 1.80 µM; in assay [4] (one-site fit), 8.76 ± 2.50 µM; in assay [5] it was 1.22 ± 0.90 µM; in [6] (one-site fit) it was 12.40 ± 2.70 µM. Further, the Kd was found to be 64 µM in [8] (apparent, BHQ1-cDNA displaced (1:2), 5-HMF 0–2000 μM) and 1.79 ± 0.60 µM in [9]. Besides, the binding result in assay [7] and in [10] was “no” in each case.

For the compound `O=Cc1ccco1`, the binding entry was “no” in [1] (FF concentration not stated); “no” in assay [4] (FF concentration not stated); “no” in assay [6] (FF concentration not stated); “no” in assay [8] (BHQ1-cDNA as displaced strand, up to 100 μM FF).
